Source: publication PMC12277872, “Design, Synthesis, In Vitro, and In Silico Studies of 5‐(Diethylamino)‐2‐Formylphenyl Naphthalene‐2‐Sulfonate Based Thiosemicarbazones as Potent Anti‐Alzheimer Agents” (Archiv Der Pharmazie, 2025)

How the values were obtained:
[1] = target: T1, hMAO‐A (Homo sapiens, UniProt P21397); test: In vitro fluorometric MAO-A inhibition assay (tyramine substrate, horseradish peroxidase coupling); assay type: biochemical
T1 construct: purchased Sigma Aldrich M7316
T1 sequence (P21397 1-527): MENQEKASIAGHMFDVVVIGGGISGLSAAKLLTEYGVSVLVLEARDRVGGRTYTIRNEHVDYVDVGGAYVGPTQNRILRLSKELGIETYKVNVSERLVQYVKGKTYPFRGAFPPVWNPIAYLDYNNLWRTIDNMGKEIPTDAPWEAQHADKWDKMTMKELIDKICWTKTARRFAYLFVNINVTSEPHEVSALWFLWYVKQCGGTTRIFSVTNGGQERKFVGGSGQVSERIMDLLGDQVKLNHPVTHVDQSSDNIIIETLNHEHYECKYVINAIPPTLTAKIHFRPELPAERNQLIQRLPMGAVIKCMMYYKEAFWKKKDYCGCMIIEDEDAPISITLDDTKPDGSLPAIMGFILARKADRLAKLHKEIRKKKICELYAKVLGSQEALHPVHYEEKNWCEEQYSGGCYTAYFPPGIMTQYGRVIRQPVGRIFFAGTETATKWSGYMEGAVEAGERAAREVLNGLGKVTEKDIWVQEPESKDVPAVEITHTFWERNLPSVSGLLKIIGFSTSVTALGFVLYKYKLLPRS
Method: (§1) The in vitro fluorometric technique was used to assess each newly generated substance's inhibitory activity against hMAO‐A and hMAO‐B. In a horseradish peroxidase coupling reaction, the oxired reagent (10‐acetyl‐3,7‐dihydroxyphenoxazine) detects H2O2, a result of the oxidative deamination of tyramine, which is utilized as an MAO substrate. The test was carried out in two steps. First, each compound's concentrations of 10^–3 and 10^–4 M were investigated. […] These parameters of this study were made as in previous studies. We purchased these two enzymes from Sigma Aldrich (M7316‐Monoamine Oxidase A human and M7441‐ […]).

[2] = target: T2, hMAO‐B (Homo sapiens, UniProt P27338); test: In vitro fluorometric MAO-B inhibition assay (tyramine substrate, horseradish peroxidase coupling); assay type: biochemical
T2 construct: purchased Sigma Aldrich M7441
T2 sequence (P27338 1-520): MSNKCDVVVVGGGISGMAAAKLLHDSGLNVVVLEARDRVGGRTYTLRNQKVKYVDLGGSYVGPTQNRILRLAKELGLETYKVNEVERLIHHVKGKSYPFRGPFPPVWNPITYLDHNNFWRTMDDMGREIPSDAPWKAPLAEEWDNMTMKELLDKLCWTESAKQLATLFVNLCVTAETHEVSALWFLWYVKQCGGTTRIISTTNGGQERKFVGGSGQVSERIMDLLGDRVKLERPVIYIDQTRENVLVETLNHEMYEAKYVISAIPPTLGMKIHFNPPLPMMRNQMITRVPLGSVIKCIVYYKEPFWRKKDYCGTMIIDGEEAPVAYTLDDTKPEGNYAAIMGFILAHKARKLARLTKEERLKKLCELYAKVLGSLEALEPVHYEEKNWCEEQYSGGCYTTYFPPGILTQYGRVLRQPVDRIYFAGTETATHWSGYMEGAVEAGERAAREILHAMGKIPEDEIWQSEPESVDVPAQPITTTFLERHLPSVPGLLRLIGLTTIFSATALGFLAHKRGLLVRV
Method: as §1

[3] = target: T3, AChE from Electrophorus electricus (electric eel) (Electrophorus electricus, UniProt O42275); test: biochemical; conditions: for IC50: AChI substrate, DTNB, 412 nm, Tris/HCl pH 8.0; for Ki: read-out: K i (nM) AChE
T3 construct: purchased Sigma Aldrich C3389
T3 sequence (O42275 24-633): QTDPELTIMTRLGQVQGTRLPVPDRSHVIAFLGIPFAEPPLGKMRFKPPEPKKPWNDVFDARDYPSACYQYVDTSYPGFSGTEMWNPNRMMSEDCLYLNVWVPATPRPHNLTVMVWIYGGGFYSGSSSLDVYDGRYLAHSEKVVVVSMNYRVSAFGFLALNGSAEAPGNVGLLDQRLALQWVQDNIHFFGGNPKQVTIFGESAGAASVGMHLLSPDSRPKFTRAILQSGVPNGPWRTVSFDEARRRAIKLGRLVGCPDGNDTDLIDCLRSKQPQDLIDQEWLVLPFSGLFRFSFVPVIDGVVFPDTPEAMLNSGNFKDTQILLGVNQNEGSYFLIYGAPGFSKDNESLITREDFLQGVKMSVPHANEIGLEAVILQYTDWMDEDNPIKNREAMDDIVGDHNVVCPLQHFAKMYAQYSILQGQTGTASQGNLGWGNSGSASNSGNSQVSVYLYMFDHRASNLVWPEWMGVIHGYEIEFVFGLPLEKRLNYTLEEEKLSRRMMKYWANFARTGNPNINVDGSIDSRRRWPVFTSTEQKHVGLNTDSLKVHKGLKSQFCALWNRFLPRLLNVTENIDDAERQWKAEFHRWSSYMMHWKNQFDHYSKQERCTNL
Method: Both […] (AChI) and butyrylcholine iodide (BChI) were used as substrates for the enzymatic hydrolysis reactions, with 5,5′‐dithiobis(2‐nitrobenzoic acid) (DTNB) serving as a common reagent for detecting the activities of AChE and BChE. The assay was conducted: 1 mL of 1.0 M Tris/HCl buffer (pH 8.0) was mixed with 10 μL of the sample solution in deionized water. To this mixture, 50 μL of AChE or BChE enzyme solution was added, and the reaction was incubated at room temperature for 10 min. After incubation, 50 μL of DTNB (0.5 mM) was introduced, followed by the addition of 50 μL of either AChI or BChI (10 mM), initiating the enzymatic reaction. […] This color change is due to the reaction of DTNB with thiocholine released during the hydrolysis of AChI or BChI. For every inhibitor that was utilized, IC50 and K i values were determined. In this study, C7512‐ BChE from equine serum and C3389‐ AChE from Electrophorus electricus (electric eel) were purchased from Sigma Aldrich.

[4] = target: T4, BChE from equine serum (Equus caballus, UniProt P81908); test: biochemical; conditions: for IC50: BChI substrate, DTNB, 412 nm, Tris/HCl pH 8.0; for Ki: read-out: K i (nM) BChE
T4 construct: C7512‐ BChE from equine serum; purchased Sigma Aldrich C7512; host or cells: equine serum
T4 sequence (P81908 whole entry): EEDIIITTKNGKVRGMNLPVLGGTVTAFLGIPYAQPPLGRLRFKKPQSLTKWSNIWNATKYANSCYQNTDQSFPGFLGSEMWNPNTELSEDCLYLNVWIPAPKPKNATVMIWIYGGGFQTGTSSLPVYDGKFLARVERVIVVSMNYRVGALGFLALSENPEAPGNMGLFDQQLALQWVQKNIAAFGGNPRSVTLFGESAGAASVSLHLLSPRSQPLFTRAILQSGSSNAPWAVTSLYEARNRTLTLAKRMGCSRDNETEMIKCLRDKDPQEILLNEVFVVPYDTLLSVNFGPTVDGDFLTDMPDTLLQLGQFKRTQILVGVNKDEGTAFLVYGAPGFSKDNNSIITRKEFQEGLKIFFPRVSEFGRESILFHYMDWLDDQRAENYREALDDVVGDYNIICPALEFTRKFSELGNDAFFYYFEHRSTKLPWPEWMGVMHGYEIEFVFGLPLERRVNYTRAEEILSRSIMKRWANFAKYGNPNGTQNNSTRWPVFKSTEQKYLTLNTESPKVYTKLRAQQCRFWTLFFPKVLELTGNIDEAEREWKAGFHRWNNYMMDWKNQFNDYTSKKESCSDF
Method: Both […] (AChI) and butyrylcholine iodide (BChI) were used as substrates for the enzymatic hydrolysis reactions, with 5,5′‐dithiobis(2‐nitrobenzoic acid) (DTNB) serving as a common reagent for detecting the activities of AChE and BChE. The assay was conducted: 1 mL of 1.0 M Tris/HCl buffer (pH 8.0) was mixed with 10 μL of the sample solution in deionized water. To this mixture, 50 μL of AChE or BChE enzyme solution was added, and the reaction was incubated at room temperature for 10 min. After incubation, 50 μL of DTNB (0.5 mM) was introduced, followed by the addition of 50 μL of either AChI or BChI (10 mM), initiating the enzymatic reaction. The hydrolysis of the substrates was monitored spectrophotometrically by measuring the absorbance at 412 nm, corresponding to the formation of the yellow‐colored 5‐thio‐2‐nitrobenzoate anion. This color change is due to the reaction of DTNB with thiocholine released during the hydrolysis of AChI or BChI. For every inhibitor that was utilized, IC50 and K i values were determined. In this study, C7512‐ BChE from equine serum and C3389‐ AChE from Electrophorus electricus (electric eel) were purchased from Sigma Aldrich.

Row | SMILES | IC50 [1] [nM] | IC50 [2] [nM] | IC50 [3] [nM] | Ki [3] [nM] | IC50 [4] [nM] | Ki [4] [nM]
1 | CCN(CC)c1ccc(/C=N/NC(=S)Nc2c(C)cccc2C)c(OS(=O)(=O)c2ccc3ccccc3c2)c1 [Compound 5j, (E)‐5‐(Diethylamino)‐2‐({2‐[(2,6‐dimethylphenyl)carbamothioyl]hydrazono}methyl)phenyl naphthalene‐2‐sulfonate] | 137 ± 6.21 | 395 ± 8.35 | 40.6 ± 2.77 | 36.5 ± 5.23 | 265 ± 7.9 | 228 ± 12.4
2 | CCN(CC)c1ccc(/C=N/NC(=S)Nc2cccc([N+](=O)[O-])c2)c(OS(=O)(=O)c2ccc3ccccc3c2)c1 [Compound 5o, (E)‐5‐(Diethylamino)‐2‐({2‐[(3‐nitrophenyl)carbamothioyl]hydrazono}methyl)phenyl naphthalene‐2‐sulfonate] | 123 ± 7.01 | 267 ± 6.35 | 18.9 ± 1.33 | 14.2 ± 2.32 | 192 ± 6.36 | 160 ± 9.01
3 | CCN(CC)c1ccc(/C=N/NC(=S)Nc2cccc(Cl)c2)c(OS(=O)(=O)c2ccc3ccccc3c2)c1 [Compound 5e, (E)‐2‐({2‐[(3‐chlorophenyl)carbamothioyl]hydrazono}methyl)‐5‐(diethylamino)phenyl naphthalene‐2‐sulfonate] | 117 ± 7.33 | > 1000 | 31 ± 4.16 | 25.4 ± 3.32 | 208 ± 7.53 | 195 ± 11.5
4 | CCN(CC)c1ccc(/C=N/NC(=S)Nc2ccc(OC)cc2)c(OS(=O)(=O)c2ccc3ccccc3c2)c1 [Compound 5d, (E)‐5‐(Diethylamino)‐2‐({2‐[(4‐methoxyphenyl)carbamothioyl]hydrazono}methyl)phenyl naphthalene‐2‐sulfonate] | 171 ± 10.4 | 406 ± 8.24 | 39.4 ± 2.87 | 32.2 ± 5.93 | 253 ± 10.5 | 235 ± 15
5 | CCN(CC)c1ccc(/C=N/NC(=S)Nc2ccc(Cl)cc2)c(OS(=O)(=O)c2ccc3ccccc3c2)c1 [Compound 5i, (E)‐2‐({2‐[(4‐Chlorophenyl)carbamothioyl]hydrazono}methyl)‐5‐(diethylamino)phenyl naphthalene‐2‐sulfonate] | 121 ± 3.15 | 285 ± 4.02 | 24.8 ± 2.41 | 21 ± 4.12 | 200 ± 9.41 | 190 ± 13.6
6 | CCN(CC)c1ccc(/C=N/NC(=S)NC)c(OS(=O)(=O)c2ccc3ccccc3c2)c1 [Compound 5m, (E)‐5‐(Diethylamino)‐2‐{[2‐(methylcarbamothioyl)hydrazono]methyl}phenyl naphthalene‐2‐sulfonate] | 132 ± 4.96 | 369 ± 11.2 | 38.5 ± 3.21 | 30.2 ± 5.02 | 214 ± 7.13 | 193 ± 11.6
7 | CCN(CC)c1ccc(/C=N/NC(=S)NCc2ccccc2)c(OS(=O)(=O)c2ccc3ccccc3c2)c1 [Compound 5s, (E)‐2‐{[2‐(Benzylcarbamothioyl)hydrazono]methyl}‐5‐(diethylamino)phenyl naphthalene‐2‐sulfonate] | 131 ± 5.34 | 369 ± 12 | 71.4 ± 8.92 | 63.9 ± 7.54 | 220 ± 8.53 | 195 ± 13.5
8 | CCN(CC)c1ccc(C=NNC(=S)NCCCSC)c(OS(=O)(=O)c2ccc3ccccc3c2)c1 [Compound 5g] | 188 ± 5.36 | 399 ± 7.93 | 80.4 ± 7.62 | 72.4 ± 10.1 | 287 ± 8.57 | 258 ± 16.1
9 | CCN(CC)c1ccc(/C=N/NC(=S)NC2CCCCC2)c(OS(=O)(=O)c2ccc3ccccc3c2)c1 [Compound 5p, (E)‐2‐{[2‐(Cyclohexylcarbamothioyl)hydrazono]methyl}‐5‐(diethylamino)phenyl naphthalene‐2‐sulfonate] | 145 ± 3.57 | 327 ± 9.13 | 54.5 ± 4.57 | 47.1 ± 6.35 | 254 ± 8.08 | 226 ± 12.6
10 | CCN(CC)c1ccc(/C=N/NC(N)=S)c(OS(=O)(=O)c2ccc3ccccc3c2)c1 [Compound 5n, (E)‐2‐[(2‐Carbamothioylhydrazono)methyl]‐5‐(diethylamino)phenyl naphthalene‐2‐sulfonate] | 137 ± 6.55 | 396 ± 8.09 | 47.7 ± 5.67 | 42.4 ± 4.1 | 308 ± 9.98 | 270 ± 13.5
11 | CCN(CC)c1ccc(/C=N/NC(=S)Nc2ccccc2C(F)(F)F)c(OS(=O)(=O)c2ccc3ccccc3c2)c1 [Compound 5h, (E)‐5‐(Diethylamino)‐2‐[(2‐{[2‐(trifluoromethyl)phenyl]carbamothioyl}hydrazineylidene)methyl]phenyl naphthalene‐2‐sulfonate] | 100 ± 4.57 | 249 ± 9.1 | 16.8 ± 1.35 | 14.6 ± 3.36 | 145 ± 8.96 | 136 ± 9.17
12 | CCN(CC)c1ccc(/C=N/NC(=S)NCCc2ccccc2)c(OS(=O)(=O)c2ccc3ccccc3c2)c1 [Compound 5t, (E)‐5‐(Diethylamino)‐2‐{[2‐(phenethylcarbamothioyl)hydrazono]methyl}phenyl naphthalene‐2‐sulfonate] | 139 ± 6.02 | 289 ± 9.11 | 56.2 ± 4.58 | 48.3 ± 7.32 | 271 ± 6.9 | 227 ± 16.1
13 | CCN(CC)c1ccc(/C=N/NC(=S)Nc2ccc(Br)cc2)c(OS(=O)(=O)c2ccc3ccccc3c2)c1 [Compound 5b, (E)‐2‐({2‐[(4‐Bromophenyl)carbamothioyl]hydrazono}methyl)‐5‐(diethylamino)phenyl naphthalene‐2‐sulfonate] | 132 ± 7.01 | 410 ± 7.47 | 33.8 ± 3.41 | 26.6 ± 3.34 | 202 ± 5.66 | 191 ± 15.7
14 | CCN(CC)c1ccc(/C=N/NC(=S)Nc2ccccc2C)c(OS(=O)(=O)c2ccc3ccccc3c2)c1 [Compound 5r, (E)‐5‐(Diethylamino)‐2‐{[2‐(o‐tolylcarbamothioyl)hydrazono]methyl}phenyl naphthalene‐2‐sulfonate] | 143 ± 6.78 | 495 ± 8.36 | 27.4 ± 2.42 | 21.2 ± 1.05 | 294 ± 7.14 | 249 ± 15.3
15 | CCN(CC)c1ccc(/C=N/NC(=S)NCC(C)C)c(OS(=O)(=O)c2ccc3ccccc3c2)c1 [Compound 5f, (E)‐5‐(Diethylamino)‐2‐{[2‐(isobutylcarbamothioyl)hydrazono]methyl}phenyl naphthalene‐2‐sulfonate] | 134 ± 8.04 | 388 ± 5.37 | 49.5 ± 5.21 | 38.8 ± 6.18 | 254 ± 6.31 | 240 ± 18.6
